# Patent US20040006070A1, “Intraspinal continuous infusion of midazolam hydrochloride for the treatment of pain” (priority 2002, published 2004)
# Counter-ions that a name gives are not always drawn.
# Test: Bloodwork: complete blood count, electrolytes, extended blood chemistry
# Type: in vivo, sheep
# Experimental: Indirect blood pressure, pulse recording, pain testing (mechanical stimulus device, cold and warm water baths see description in procedure) and weight were taken on days 1, 3, 7, 15, 22, 29, 36, and 43. Venous blood samples (15 ml drawn from the jugular vein with Vacutainer brand blood collection tubes) for complete blood count, electrolytes, and extended blood chemistry were drawn on days 1, 15, and 43 (mild procedure only light hand restraint necessary).
# [1] = Double Blinded Sheep, Chemistries, Day 15
# [2] = Double Blinded Sheep, Chemistries, Day 43
# [3] = sheep #84 Roadrunner, 15 mg/day, Baseline
# [4] = sheep #84 Roadrunner, 15 mg/day, Day 1
smiles,measurement,setting,value
"Cc1ncc2n1-c1ccc(Cl)cc1C(c1ccccc1F)=NC2 [Midazolam, midazolam hydrochloride]",ALT,[1],10 U/L
same,AST,[1],72 U/L
same,CPK,[1],100 U/L
same,Cholesterol,[1],74 mg/dL
same,Total Bili,"Double Blinded Sheep, Chemistries, Day 15, reference range 0.14-0.32",0.1 mg/dL
same,Creatinine,"Double Blinded Sheep, Chemistries, Day 15, reference range 1-2.7",1.1 mg/dL
same,Albumin,"Double Blinded Sheep, Chemistries, Day 15, reference range 2.4-3",3.6 g/dL
same,K+,"Double Blinded Sheep, Chemistries, Day 15, reference range 3.9-5.4",4.8 mEq/l
same,Phos,"Double Blinded Sheep, Chemistries, Day 15, reference range 5-7.3",6.4 mg/dL
same,Total Prot,"Double Blinded Sheep, Chemistries, Day 15, reference range 6-7.9",7.1 g/dL
same,BUN,"Double Blinded Sheep, Chemistries, Day 15, reference range 8-20",25 mg/dL
same,Gamma GT,"Double Blinded Sheep, Chemistries, Day 15, reference range 25-59",87 U/L
same,Glucose,"Double Blinded Sheep, Chemistries, Day 15, reference range 42-76",82 mg/dL
same,Alk Phos,"Double Blinded Sheep, Chemistries, Day 15, reference range 68-387",154 U/L
same,Na+,"Double Blinded Sheep, Chemistries, Day 15, reference range 139-152",146 mEq/l
same,ALT,[2],15 U/L
same,AST,[2],78 U/L
same,CPK,[2],96 U/L
same,Cholesterol,[2],80 mg/dL
same,Total Bili,"Double Blinded Sheep, Chemistries, Day 43, reference range 0.14-0.32",0.1 mg/dL
same,Creatinine,"Double Blinded Sheep, Chemistries, Day 43, reference range 1-2.7",1.0 mg/dL
same,Albumin,"Double Blinded Sheep, Chemistries, Day 43, reference range 2.4-3",3.6 g/dL
same,K+,"Double Blinded Sheep, Chemistries, Day 43, reference range 3.9-5.4",5.7 mEq/l
same,Phos,"Double Blinded Sheep, Chemistries, Day 43, reference range 5-7.3",6.9 mg/dL
same,Total Prot,"Double Blinded Sheep, Chemistries, Day 43, reference range 6-7.9",6.9 g/dL
same,BUN,"Double Blinded Sheep, Chemistries, Day 43, reference range 8-20",26 mg/dL
same,Gamma GT,"Double Blinded Sheep, Chemistries, Day 43, reference range 25-59",73 U/L
same,Glucose,"Double Blinded Sheep, Chemistries, Day 43, reference range 42-76",70 mg/dL
same,Alk Phos,"Double Blinded Sheep, Chemistries, Day 43, reference range 68-387",179 U/L
same,Na+,"Double Blinded Sheep, Chemistries, Day 43, reference range 139-152",146 mEq/l
same,ALT,"sheep #83, 15 mg/day, Day 1",0 U/L
same,AST,"sheep #83, 15 mg/day, Day 1",102 U/L
same,Alk Phos,"sheep #83, 15 mg/day, Day 1",48 U/L
same,BUN,"sheep #83, 15 mg/day, Day 1",8 mg/dL
same,CPK,"sheep #83, 15 mg/day, Day 1",65 U/L
same,Cholesterol,"sheep #83, 15 mg/day, Day 1",47 mg/dL
same,Differential Count: Eosin,"sheep #83, 15 mg/day, Day 1",1%
same,Differential Count: Lymph,"sheep #83, 15 mg/day, Day 1",55%
same,Differential Count: Mono,"sheep #83, 15 mg/day, Day 1",5%
same,Differential Count: Seg,"sheep #83, 15 mg/day, Day 1",39%
same,Gamma GT,"sheep #83, 15 mg/day, Day 1",62 U/L
same,Glucose,"sheep #83, 15 mg/day, Day 1",78 mg/dL
same,Hct,"sheep #83, 15 mg/day, Day 1",37.2%
same,Hgb,"sheep #83, 15 mg/day, Day 1",12.7 g/dL
same,MCH,"sheep #83, 15 mg/day, Day 1",11.3 pg
same,MCHC,"sheep #83, 15 mg/day, Day 1",34.0 g/dL
same,MCV,"sheep #83, 15 mg/day, Day 1",33.2 fL
same,Na+,"sheep #83, 15 mg/day, Day 1",148 mEq/l
same,Platlet Count,"sheep #83, 15 mg/day, Day 1",879000 µL⁻¹
same,RBC,"sheep #83, 15 mg/day, Day 1",1.12e+07 µL⁻¹
same,WBC,"sheep #83, 15 mg/day, Day 1",5320 µL⁻¹
same,Total Bili,"sheep #83, 15 mg/day, Day 1, ref 0.14-0.32",0.1 mg/dL
same,Creatinine,"sheep #83, 15 mg/day, Day 1, ref 1-2.7",1.4 mg/dL
same,Albumin,"sheep #83, 15 mg/day, Day 1, ref 2.4-3",3.3 g/dL
same,K+,"sheep #83, 15 mg/day, Day 1, ref 3.9-5.4",4.2 mEq/l
same,Phos,"sheep #83, 15 mg/day, Day 1, ref 5-7.3",7.1 mg/dL
same,Total Prot,"sheep #83, 15 mg/day, Day 1, ref 6-7.9",6.1 g/dL
same,ALT,"sheep #83, 15 mg/day, Day 15",8 U/L
same,AST,"sheep #83, 15 mg/day, Day 15",52 U/L
same,Alk Phos,"sheep #83, 15 mg/day, Day 15",90 U/L
same,BUN,"sheep #83, 15 mg/day, Day 15",90 mg/dL
same,CPK,"sheep #83, 15 mg/day, Day 15",107 U/L
same,Cholesterol,"sheep #83, 15 mg/day, Day 15",65 mg/dL
same,Differential Count: Eosin,"sheep #83, 15 mg/day, Day 15",1%
same,Differential Count: Lymph,"sheep #83, 15 mg/day, Day 15",68%
same,Differential Count: Mono,"sheep #83, 15 mg/day, Day 15",2%
same,Differential Count: Seg,"sheep #83, 15 mg/day, Day 15",29%
same,Gamma GT,"sheep #83, 15 mg/day, Day 15",72 U/L
same,Glucose,"sheep #83, 15 mg/day, Day 15",66 mg/dL
same,Hct,"sheep #83, 15 mg/day, Day 15",33.2%
same,Hgb,"sheep #83, 15 mg/day, Day 15",11.5 g/dL
same,MCH,"sheep #83, 15 mg/day, Day 15",11.4 pg
same,MCHC,"sheep #83, 15 mg/day, Day 15",34.7 g/dL
same,MCV,"sheep #83, 15 mg/day, Day 15",33.0 fL
same,Na+,"sheep #83, 15 mg/day, Day 15",147 mEq/l
same,Platlet Count,"sheep #83, 15 mg/day, Day 15",296000 µL⁻¹
same,RBC,"sheep #83, 15 mg/day, Day 15",1e+07 µL⁻¹
same,WBC,"sheep #83, 15 mg/day, Day 15",4390 µL⁻¹
same,Total Bili,"sheep #83, 15 mg/day, Day 15, ref 0.14-0.32",0.1 mg/dL
same,Creatinine,"sheep #83, 15 mg/day, Day 15, ref 1-2.7",1.2 mg/dL
same,Albumin,"sheep #83, 15 mg/day, Day 15, ref 2.4-3",3.3 g/dL
same,K+,"sheep #83, 15 mg/day, Day 15, ref 3.9-5.4",4.5 mEq/l
same,Phos,"sheep #83, 15 mg/day, Day 15, ref 5-7.3",5.1 mg/dL
same,Total Prot,"sheep #83, 15 mg/day, Day 15, ref 6-7.9",5.9 g/dL
same,ALT,"sheep #83, 15 mg/day, Day 43",6 U/L
same,AST,"sheep #83, 15 mg/day, Day 43",53 U/L
same,Alk Phos,"sheep #83, 15 mg/day, Day 43",96 U/L
same,BUN,"sheep #83, 15 mg/day, Day 43",14 mg/dL
same,CPK,"sheep #83, 15 mg/day, Day 43",49 U/L
same,Cholesterol,"sheep #83, 15 mg/day, Day 43",52 mg/dL
same,Differential Count: Atyp lym,"sheep #83, 15 mg/day, Day 43",2%
same,Differential Count: Eosin,"sheep #83, 15 mg/day, Day 43",3%
same,Differential Count: Lymph,"sheep #83, 15 mg/day, Day 43",70%
same,Differential Count: Mono,"sheep #83, 15 mg/day, Day 43",3%
same,Differential Count: Seg,"sheep #83, 15 mg/day, Day 43",22%
same,Gamma GT,"sheep #83, 15 mg/day, Day 43",54 U/L
same,Glucose,"sheep #83, 15 mg/day, Day 43",83 mg/dL
same,Hct,"sheep #83, 15 mg/day, Day 43",34.9%
same,Hgb,"sheep #83, 15 mg/day, Day 43",11.9 g/dL
same,MCH,"sheep #83, 15 mg/day, Day 43",11.1 pg
same,MCHC,"sheep #83, 15 mg/day, Day 43",31.1 g/dL
same,MCV,"sheep #83, 15 mg/day, Day 43",32.5 fL
same,Na+,"sheep #83, 15 mg/day, Day 43",149 mEq/l
same,Platlet Count,"sheep #83, 15 mg/day, Day 43",576000 µL⁻¹
same,RBC,"sheep #83, 15 mg/day, Day 43",1.07e+07 µL⁻¹
same,WBC,"sheep #83, 15 mg/day, Day 43",4770 µL⁻¹
same,Total Bili,"sheep #83, 15 mg/day, Day 43, ref 0.14-0.32",0.1 mg/dL
same,Creatinine,"sheep #83, 15 mg/day, Day 43, ref 1-2.7",1.3 mg/dL
same,Albumin,"sheep #83, 15 mg/day, Day 43, ref 2.4-3",3.6 g/dL
same,K+,"sheep #83, 15 mg/day, Day 43, ref 3.9-5.4",4.9 mEq/l
same,Phos,"sheep #83, 15 mg/day, Day 43, ref 5-7.3",6.2 mg/dL
same,Total Prot,"sheep #83, 15 mg/day, Day 43, ref 6-7.9",6.6 g/dL
same,Differential Count: Eosin,[3],5%
same,Differential Count: Lymph,[3],62%
same,Differential Count: Mono,[3],1%
same,Differential Count: Seg,[3],32%
same,Hct,[3],41.9%
same,Hgb,[3],15.0 g/dL
same,MCH,[3],10.7 pg
same,MCHC,[3],35.7 g/dL
same,MCV,[3],30.0 fL
same,Platlet Count,[3],721000 µL⁻¹
same,RBC,[3],1.4e+07 µL⁻¹
same,WBC,[3],5790 µL⁻¹
same,ALT,[4],9 U/L
same,AST,[4],100 U/L
same,Albumin,[4],3.3 g/dL
same,Alk Phos,[4],93 U/L
same,BUN,[4],7 mg/dL
same,CPK,[4],90 U/L
same,Cholesterol,[4],45 mg/dL
same,Creatinine,[4],1.2 mg/dL
same,Differential Count: Eosin,[4],8%
same,Differential Count: Lymph,[4],43%
same,Differential Count: Mono,[4],3%
same,Differential Count: Seg,[4],46%
same,Gamma GT,[4],51 U/L
same,Glucose,[4],69 mg/dL
same,Hct,[4],35.7%
same,Hgb,[4],12.9 g/dL
same,K+,[4],4.8 mEq/l
same,MCH,[4],11.0 pg
same,MCHC,[4],36.1 g/dL
same,MCV,[4],30.4 fL
same,Na+,[4],148 mEq/l
same,Phos,[4],6.2 mg/dL
same,Platlet Count,[4],962000 µL⁻¹
same,RBC,[4],1.17e+07 µL⁻¹
